{
  "source": "patent US12291553B2",
  "about": "“Non-opioid anti-pain medication” (priority 2020, dated 2025)",
  "key": {"[1]": {"target": "T1, FGF13-1b:Nav1.6 C-tail complex (Homo sapiens, UniProt Q9UQD0)", "T1 construct": "luciferase fragment (split-luciferase half); expressed in transfected cells", "T1 sequence (Q9UQD0 1763-1980 limits assumed, one chain of several)": "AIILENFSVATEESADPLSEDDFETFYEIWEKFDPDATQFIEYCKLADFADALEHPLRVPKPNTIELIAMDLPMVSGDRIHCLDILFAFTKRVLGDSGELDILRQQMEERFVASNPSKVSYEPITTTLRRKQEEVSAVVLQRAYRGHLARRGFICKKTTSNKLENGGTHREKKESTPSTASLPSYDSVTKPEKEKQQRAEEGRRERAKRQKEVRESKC", "experiment": "Split-luciferase complementation assay (LCA), FGF13-1b:Nav1.6 C-tail complex", "format": "cell-based", "conditions": "LCA dose response, normalized to 0.5% DMSO; read-out: IC50, prevention of FGF13:Nav1.6 complex assembly", "from_the_text": "In-cell reconstitution of FGF13: Nav1.6 complexes using the split-luciferase assay. […] B. Luminescence-based complementation assay (LCA) of the FGF13-1a:Nav1.6 (solid dots) and FGF13-1b:Nav1.6 C-tail complex (open dots); control conditions are depicted in black; corresponding dark red dots refer to LCA complexes in the presence of the tyrosine kinase inhibitor MNS used as negative control."}, "FGF13-1a:Nav1.6": {"target": "T2, FGF13-1a:Nav1.6 (Homo sapiens, UniProt Q9UQD0)", "T2 construct": "luciferase fragment (split-luciferase half); expressed in transfected cells", "T2 sequence (Q9UQD0 1763-1980 limits assumed)": "as the sequence (Q9UQD0 1763-1980 limits assumed, one chain of several) above", "experiment": "Split-luciferase complementation assay (LCA), FGF13-1a:Nav1.6 complex", "format": "cell-based", "conditions": "LCA dose response, normalized to 0.5% DMSO", "text": "FIG. 2. In-cell reconstitution of FGF13: Nav1.6 complexes using the split-luciferase assay. A. Principle of split-luciferase assay. B. Luminescence-based complementation assay (LCA) of the FGF13-1a:Nav1.6 (solid dots) and FGF13-1b:Nav1.6 C-tail complex (open dots); control conditions are depicted in black; corresponding dark red dots refer to LCA complexes in the presence of the tyrosine kinase inhibitor MNS used as negative control. C,D. Summary bar graphs depicting assay robustness with respective Z′ score calculations for each LCA complex.\n(§1) FIG. 3. PW164 inhibits FGF13-1b but not FGF13-1a binding to the Nav1.6 C-tail. […] Data are normalized with respect to 0.5% DMSO (vehicle). (C) PW164 has no effect on full length luciferase in transiently transfected HEK293 cells. (D) PW164 is not toxic toward HEK293 cells using the LDH cytotoxicity assay."}, "full length luciferase": {"target": "T3, full length luciferase (Photinus pyralis, UniProt P08659)", "T3 construct": "PW164 has no effect on full length luciferase in transiently transfected HEK293 cells; expressed in transfected cells; host or cells: HEK293", "T3 sequence (P08659 whole entry, species assumed)": "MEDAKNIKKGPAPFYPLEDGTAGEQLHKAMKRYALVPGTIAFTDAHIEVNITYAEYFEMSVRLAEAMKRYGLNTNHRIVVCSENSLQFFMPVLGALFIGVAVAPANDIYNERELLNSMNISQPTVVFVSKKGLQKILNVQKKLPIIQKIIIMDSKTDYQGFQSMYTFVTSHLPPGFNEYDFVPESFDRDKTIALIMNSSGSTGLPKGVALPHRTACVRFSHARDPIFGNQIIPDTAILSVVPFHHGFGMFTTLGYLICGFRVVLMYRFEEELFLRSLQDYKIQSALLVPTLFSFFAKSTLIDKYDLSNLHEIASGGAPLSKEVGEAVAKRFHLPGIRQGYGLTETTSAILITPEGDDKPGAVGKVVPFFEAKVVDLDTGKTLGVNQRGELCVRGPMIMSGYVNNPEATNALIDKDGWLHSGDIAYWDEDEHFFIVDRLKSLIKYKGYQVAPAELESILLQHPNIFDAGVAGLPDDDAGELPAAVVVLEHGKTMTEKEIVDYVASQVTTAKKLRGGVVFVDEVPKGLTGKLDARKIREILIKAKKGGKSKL", "experiment": "Full length luciferase counter-screen in transiently transfected HEK293 cells", "format": "cell-based", "text": "as §1"}, "HEK293 cells": {"system": "HEK293 cells", "format": "cell-based", "text": "as §1"}, "Nav1.6": {"target": "T4, Nav1.6 (Homo sapiens, UniProt Q9UQD0)", "T4 construct": "expressed in transfected cells; host or cells: HEK-Nav1.6 cells", "T4 sequence (Q9UQD0 whole entry)": "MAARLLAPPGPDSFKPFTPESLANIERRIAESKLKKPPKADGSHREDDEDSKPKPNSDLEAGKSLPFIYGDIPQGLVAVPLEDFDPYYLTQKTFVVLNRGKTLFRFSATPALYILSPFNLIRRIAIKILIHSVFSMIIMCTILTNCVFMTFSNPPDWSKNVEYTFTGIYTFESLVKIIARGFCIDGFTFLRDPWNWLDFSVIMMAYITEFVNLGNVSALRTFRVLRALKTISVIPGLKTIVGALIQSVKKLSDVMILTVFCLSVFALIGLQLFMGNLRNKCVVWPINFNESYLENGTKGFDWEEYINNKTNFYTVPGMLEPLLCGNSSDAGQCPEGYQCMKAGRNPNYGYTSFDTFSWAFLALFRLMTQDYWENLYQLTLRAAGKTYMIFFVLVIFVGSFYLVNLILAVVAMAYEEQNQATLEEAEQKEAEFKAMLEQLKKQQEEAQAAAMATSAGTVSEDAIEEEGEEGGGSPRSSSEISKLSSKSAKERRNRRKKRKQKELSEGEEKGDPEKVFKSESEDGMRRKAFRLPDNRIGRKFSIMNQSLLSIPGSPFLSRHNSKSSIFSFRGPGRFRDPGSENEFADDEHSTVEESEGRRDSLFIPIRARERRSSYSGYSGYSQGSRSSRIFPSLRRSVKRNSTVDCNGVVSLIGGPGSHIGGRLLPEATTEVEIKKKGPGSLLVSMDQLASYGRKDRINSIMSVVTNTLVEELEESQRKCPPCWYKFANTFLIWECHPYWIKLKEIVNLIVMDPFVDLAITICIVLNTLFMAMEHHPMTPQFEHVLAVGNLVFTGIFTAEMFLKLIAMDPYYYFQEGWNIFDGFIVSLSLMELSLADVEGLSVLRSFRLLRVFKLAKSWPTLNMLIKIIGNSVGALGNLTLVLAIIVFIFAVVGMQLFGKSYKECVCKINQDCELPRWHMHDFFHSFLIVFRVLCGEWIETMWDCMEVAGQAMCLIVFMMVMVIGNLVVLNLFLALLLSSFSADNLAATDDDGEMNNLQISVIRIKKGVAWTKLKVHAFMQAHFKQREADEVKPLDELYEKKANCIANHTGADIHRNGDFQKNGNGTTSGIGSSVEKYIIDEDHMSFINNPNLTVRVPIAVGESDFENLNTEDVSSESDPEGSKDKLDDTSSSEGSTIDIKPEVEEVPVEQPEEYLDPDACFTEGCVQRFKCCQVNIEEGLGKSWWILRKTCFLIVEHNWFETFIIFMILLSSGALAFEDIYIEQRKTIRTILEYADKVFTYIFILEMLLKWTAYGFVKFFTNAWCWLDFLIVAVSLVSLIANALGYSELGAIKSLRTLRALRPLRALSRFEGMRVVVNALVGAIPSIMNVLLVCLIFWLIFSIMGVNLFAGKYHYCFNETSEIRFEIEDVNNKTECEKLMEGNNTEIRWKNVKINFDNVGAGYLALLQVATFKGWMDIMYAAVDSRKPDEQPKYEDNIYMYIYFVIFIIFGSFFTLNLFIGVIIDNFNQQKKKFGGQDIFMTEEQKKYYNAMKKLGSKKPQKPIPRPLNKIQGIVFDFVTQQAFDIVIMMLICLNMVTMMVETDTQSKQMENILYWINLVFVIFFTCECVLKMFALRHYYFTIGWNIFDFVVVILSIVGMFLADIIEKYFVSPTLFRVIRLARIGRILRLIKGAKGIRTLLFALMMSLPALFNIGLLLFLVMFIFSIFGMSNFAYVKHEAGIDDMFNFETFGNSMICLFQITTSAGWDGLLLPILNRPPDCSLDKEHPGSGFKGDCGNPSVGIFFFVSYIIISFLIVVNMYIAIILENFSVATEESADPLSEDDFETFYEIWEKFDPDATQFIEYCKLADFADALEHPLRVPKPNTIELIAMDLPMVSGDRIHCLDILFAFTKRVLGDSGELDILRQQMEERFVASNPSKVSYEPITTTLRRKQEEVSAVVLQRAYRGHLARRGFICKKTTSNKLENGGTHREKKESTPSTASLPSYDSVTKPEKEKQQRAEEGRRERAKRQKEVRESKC", "experiment": "Patch-clamp, Na+ transient currents in HEK-Nav1.6 cells", "format": "cell-based", "conditions": "50 μM", "protocol": "FIG. 5. […] A. Representative traces of Na+ transient currents (INa+) recorded from HEK-Nav1.6 cells transiently expressing the indicated constructs in response to depolarizing voltage steps in the presence of 50 μM PW164 or DMSO. B. Current-voltage relationship (I-V) derived from A. C. Summary bar graphs derived from A,B. Data are represented as mean±SEM; n=4-8 cells per group. *p<0.05; One-WAY ANOVA, post-hoc Bonferroni.\n(§2) Based on the success of other PPI regulators targeting ion channels we used the same rationale of selecting compounds that could act as a FGF13 isoform specific blocking FGF13-1b isoform effects mimicking FGF13-1a and select PW164 for functional assays. We used patch-clamp electrophysiology and begun functional validation of the lead compound using a panel of biophysical protocols targeting Nav channels (FIG. 5, 6)."}, "FGF13-1b:Nav1.6 channel": {"target": "T5, FGF13-1b:Nav1.6 channel (Homo sapiens, UniProt Q9UQD0)", "T5 construct": "expressed in transfected cells; host or cells: HEK-Nav1.6 cells", "T5 sequence (Q9UQD0 whole entry)": "as above", "experiment": "Patch-clamp, steady-state inactivation in HEK-Nav1.6 cells expressing FGF13-1b", "format": "cell-based", "protocol": "FIG. 6. […] HEK-Nav1.6 cells were transiently expressing GFP, FGF13-1b-GFP or FGF13-1a-GFP in the presence of DMSO (blue, red and dark red) 50 μM PW164 (black, green, dark green) A, Normalized current as a function of voltage (voltage dependence of steady-state inactivation) with Boltzmann fitting B Bar graph represents V1/2 of steady state inactivation. C. Normalized conductance (G/Gmax) as a function of voltage (voltage dependence of activation) with Boltzmann fitting. D. Bar graph represents V1/2 of activation. Data are represented as mean±SEM; n=4-8 cells per group. **p<0.01; One-WAY ANOVA, post-hoc Bonferroni.\nas §2"}, "[2]": {"system": "capsaicin-induced mechanical hypersensitivity", "experiment": "Capsaicin-induced pain model, von Frey mechanical hypersensitivity", "format": "in vivo, mice"}, "[3]": {"system": "mechanical hypersensitivity at the surgical wound", "experiment": "Plantar incision model of post-operative pain", "format": "in vivo, mice", "conditions": "administered to the wound, 3 μL", "text": "FIG. 10. […] After plantar incision, mice develop profound mechanical hypersensitivity to LVF at the surgical wound (scheme)."}, "[4]": {"experiment": "DMPK profile, oral and intravenous dosing", "format": "in vivo", "conditions": "oral 20 mg/kg, mouse", "method": "Relevant parameters such as half-time (t1/2), maximal concentration (Cmax), area under the curve (AUC), apparent volume of distribution at steady state (Vss), clearance (CL) and bioavailability (% F) were calculated in a mouse model."}, "[5]": {"target": "human cardiac ERG channel (hERG) (Homo sapiens, UniProt Q12809)", "sequence (Q12809 whole entry, canonical isoform)": "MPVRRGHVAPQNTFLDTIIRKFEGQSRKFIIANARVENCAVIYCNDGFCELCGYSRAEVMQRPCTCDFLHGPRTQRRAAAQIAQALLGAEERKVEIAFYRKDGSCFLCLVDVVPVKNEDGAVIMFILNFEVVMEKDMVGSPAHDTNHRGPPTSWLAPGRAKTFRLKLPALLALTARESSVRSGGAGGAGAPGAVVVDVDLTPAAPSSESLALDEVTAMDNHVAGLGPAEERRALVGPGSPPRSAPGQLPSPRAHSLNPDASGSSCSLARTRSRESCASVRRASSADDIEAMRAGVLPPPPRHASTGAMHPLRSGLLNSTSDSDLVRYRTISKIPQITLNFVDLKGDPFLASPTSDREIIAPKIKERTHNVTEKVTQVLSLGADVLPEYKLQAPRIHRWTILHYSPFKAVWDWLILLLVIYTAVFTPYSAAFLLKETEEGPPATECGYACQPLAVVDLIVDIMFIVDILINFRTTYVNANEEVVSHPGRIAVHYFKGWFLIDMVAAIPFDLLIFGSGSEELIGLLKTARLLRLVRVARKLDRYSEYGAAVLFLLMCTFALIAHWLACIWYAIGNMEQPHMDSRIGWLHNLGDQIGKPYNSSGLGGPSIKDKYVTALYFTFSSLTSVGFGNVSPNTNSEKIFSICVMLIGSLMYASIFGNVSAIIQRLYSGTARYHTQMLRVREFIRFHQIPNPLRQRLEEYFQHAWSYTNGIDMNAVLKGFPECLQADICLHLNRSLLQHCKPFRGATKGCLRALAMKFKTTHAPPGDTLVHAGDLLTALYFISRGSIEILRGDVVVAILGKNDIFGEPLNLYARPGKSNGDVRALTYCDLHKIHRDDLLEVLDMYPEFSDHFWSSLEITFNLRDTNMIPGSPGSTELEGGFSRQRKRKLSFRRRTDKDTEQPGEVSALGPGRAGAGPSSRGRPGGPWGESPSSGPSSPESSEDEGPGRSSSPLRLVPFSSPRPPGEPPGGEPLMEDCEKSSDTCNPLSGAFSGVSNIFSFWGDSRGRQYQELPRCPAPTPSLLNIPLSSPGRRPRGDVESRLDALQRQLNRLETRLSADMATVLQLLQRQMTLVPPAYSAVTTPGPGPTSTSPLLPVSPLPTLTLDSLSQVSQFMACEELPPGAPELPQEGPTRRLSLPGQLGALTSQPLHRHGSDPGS", "experiment": "hERG channel activity", "protocol": "(§3) FIG. 12. In vitro studies of PW164 plasma and blood metabolic stability in rodent and preclinical human models. Intestinal absorption using the P-glycoprotein (P-gp) inhibition (IC50) assay as well as activity against the human cardiac ERG channel (hERG) as well as liver toxicity tests against various isoforms of the cytochrome P450 were conducted. […] This might be favorable for peripheral therapeutics with the advantage of no brain-associated side toxicity effects."}, "cytochrome P450": {"system": "cytochrome P450", "experiment": "Cytochrome P450 isoform tests", "format": "in vitro ADME", "conditions": "various isoforms", "protocol": "as §3"}, "[6]": {"experiment": "Plasma metabolic stability", "format": "in vitro ADME", "protocol": "as §3"}, "Whole blood stability": {"experiment": "Whole blood stability", "format": "in vitro ADME", "protocol": "as §3"}, "[7]": {"system": "normal mechanical sensitivity", "conditions": "mouse, in vivo", "method": "(§4) Schemes illustrate the experimental design testing the effect of local and intrathecal PW164 on normal mechanical sensitivity (left) and capsaicin-induced mechanical hypersensitivity (right), respectively. […] Drugs were given at the indicated concentrations in a final injected volume of 3 ul (A) or 5 ul (B); in panel B, drugs were injected 30 min after Cap injection.\n(§5) In animals, hypersensitivity is manifested as increased withdrawals from von Frey filament stimulations of the injection site (FIG. 7)."}, "[8]": {"system": "normal mechanical sensitivity", "experiment": "Normal mechanical sensitivity, von Frey stimulation of normal skin", "conditions": "intraplantar injection, 3 ul", "method": "as §4, §5"}},
  "note": "Where two headings read alike, the source gives them in different places. Residues, ends and D or L forms follow the SMILES beside them. *: point of attachment. Cbz = O=C(OCc1ccccc1)*; OtBu = CC(C)(C)O*",
  "data": [
    {"smiles": "COC(=O)[C@@H](NC(=O)[C@H](CCC(=O)OC(C)(C)C)NC(=O)[C@H](CC(C)C)NC(=O)[C@@H]1CCCN1C(=O)OCc1ccccc1)C(C)C", "note": "[PW164, Benzyl(S)-2-(((S)-1-(((S)-5-(tert-butoxy)-1-(((S)-1-methoxy-3-methyl-1-oxobutan-2-yl)amino)-1,5-dioxopentan-2-yl)amino)-4-methyl-1-oxopentan-2-yl)carbamoyl) pyrrolidine-1-carboxylate] (Cbz-PLE(OtBu)V-OMe)", "values": [
      {"measurement": "IC50", "setting": "[1]", "result": 17.8, "unit": "µM"},
      {"measurement": "Effect on FGF13-1A binding to Nav1.6", "setting": "FGF13-1a:Nav1.6", "result": "does not have a significant effect"},
      {"measurement": "Effect on full length luciferase", "setting": "full length luciferase", "result": "no effect"},
      {"measurement": "Cytotoxicity (LDH)", "setting": "HEK293 cells", "result": "not toxic"},
      {"measurement": "Effect on Na+ transient currents", "setting": "Nav1.6", "result": "acts as a FGF13-1a mimic on transient Na+ currents"},
      {"measurement": "Availability of FGF13-1b:Nav1.6 channel pool", "setting": "FGF13-1b:Nav1.6 channel; 50 μM, HEK-Nav1.6 cells expressing FGF13-1b-GFP", "result": "decreases availability"},
      {"measurement": "Shift in V1/2 of steady-state inactivation", "setting": "FGF13-1b:Nav1.6 channel; in the presence of FGF13-1b", "result": "hyperpolarizing shift"},
      {"measurement": "Capsaicin-induced mechanical hypersensitivity", "setting": "[2]; intrathecal, 5 ul, 30 min after capsaicin", "result": "does not inhibit"},
      {"measurement": "Duration of effect compared to bupivacaine", "setting": "[2]; local injection at capsaicin site", "result": "longer-lasting effects without completely blocking mechanical sensation"},
      {"measurement": "Mechanical hypersensitivity to LVF and HVF von Frey stimulation", "setting": "[2]; local injection at capsaicin site, 30 min after capsaicin, 3 ul", "result": "dose-dependently inhibits mechanical hypersensitivity"},
      {"measurement": "Mechanical hypersensitivity to LVF at surgical wound", "setting": "[3]", "result": "inhibits the hypersensitivity"},
      {"measurement": "Oral bioavailability", "setting": "[4]; intravenous 10 mg/kg", "result": "moderate"},
      {"measurement": "Oral half-life", "setting": "[4]", "result": "moderate"},
      {"measurement": "hERG liability", "setting": "[5]", "result": "no hERG and CYP450s liabilities"},
      {"measurement": "CYP450s liability", "setting": "cytochrome P450", "result": "no hERG and CYP450s liabilities"},
      {"measurement": "Human plasma metabolic stability", "setting": "[6]", "result": "high"},
      {"measurement": "Human whole blood stability", "setting": "Whole blood stability", "result": "high"},
      {"measurement": "Normal mechanical sensation, paw withdrawal response to LVF and HVF", "setting": "[7]", "result": "no changes in paw withdrawal response"}
    ]},
    {"smiles": "CCCCN1CCCCC1C(=O)Nc1c(C)cccc1C", "note": "(stereo not shown) [bupivacaine]", "values": [
      {"measurement": "Normal mechanical sensation, paw withdrawal response to LVF and HVF", "setting": "[8]", "result": "complete sensory block"}
    ]}
  ]
}
